Experiments:
Assay in all cases: fitness (endpoint OD595 vs no drug) (fraction); higher = more growth
B. subtilis 168 = system: B. subtilis 168
Method in brief: (§1)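 Fitness expresses the optical density reached at the stationary-phase transition as a fraction of the robust mean of no-drug control wells. It is capped at 1. Measurements were OD595 every 30 min for 14 h at 37 °C after inoculation of 384-well plates at OD595 0.01 (30 µl, or 55 µl for S. pneumoniae), minus the first reading.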

S. aureus Newman = details: one replicate
Method in brief: as §1

S. pneumoniae D39V = system: S. pneumoniae D39V
Method in brief: as §1
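Also: OD595 on entry to stationary phase over no-drug wells; at most 1.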

O=C(O)[C@H]1/C(=C/CO)O[C@@H]2CC(=O)N21 [Clavulanic acid] + CN[C@@H]1[C@H](O[C@H]2[C@H](O[C@H]3[C@H](O)[C@@H](O)[C@H](N=C(N)N)[C@@H](O)[C@@H]3N=C(N)N)O[C@@H](C)[C@]2(O)C=O)O[C@@H](CO)[C@H](O)[C@H]1O [Streptomycin]
fitness
Details	partner 2 µg/mL	partner 4 µg/mL	partner 8 µg/mL
B. subtilis 168, first compound 1.5 µg/mL	0.963	–	0.0564
B. subtilis 168, first compound 3 µg/mL	0.93	–	0.0395
B. subtilis 168, first compound 6 µg/mL	0.804	–	0.0332
S. aureus Newman, first compound 0.03125 µg/mL	0.945	0.937	0.753
S. aureus Newman, first compound 0.0625 µg/mL	≥ 1	0.936	0.786
S. aureus Newman, first compound 0.125 µg/mL	0.991	0.938	0.786
S. pneumoniae D39V, first compound 0.5 µg/mL	0.955	0.929	0.901
S. pneumoniae D39V, first compound 1 µg/mL	0.899	0.886	0.855
S. pneumoniae D39V, first compound 2 µg/mL	0.757	0.78	0.768

S. pneumoniae D39V, partner 16 µg/mL, one replicate
Details	fitness
first compound 0.5 µg/mL	0.761
first compound 1 µg/mL	0.774
first compound 2 µg/mL	0.649

O=C(O)[C@H]1/C(=C/CO)O[C@@H]2CC(=O)N21 [Clavulanic acid] + CN[C@H](CC(C)C)C(=O)N[C@H]1C(=O)N[C@@H](CC(N)=O)C(=O)N[C@H]2C(=O)N[C@H]3C(=O)N[C@H](C(=O)N[C@H](C(=O)O)c4cc(O)cc(O)c4-c4cc3ccc4O)[C@H](O)c3ccc(c(Cl)c3)Oc3cc2cc(c3O[C@@H]2O[C@H](CO)[C@@H](O)[C@H](O)[C@H]2O[C@H]2C[C@](C)(N)[C@H](O)[C@H](C)O2)Oc2ccc(cc2Cl)[C@H]1O [Vancomycin]
fitness
Details	partner 0.03125 µg/mL	partner 0.0625 µg/mL	partner 0.125 µg/mL	partner 0.1875 µg/mL	partner 0.25 µg/mL	partner 0.375 µg/mL	partner 0.5 µg/mL	partner 0.75 µg/mL
S. aureus Newman, first compound 0.03125 µg/mL	–	–	–	0.974	–	0.975	–	0.974
S. aureus Newman, first compound 0.0625 µg/mL	–	–	–	≥ 1	–	≥ 1	–	≥ 1
S. aureus Newman, first compound 0.125 µg/mL	–	–	–	0.936	–	0.923	–	0.981
S. pneumoniae D39V, first compound 0.5 µg/mL	0.984	0.917	0.875	–	0.0377	–	0.0441	–
S. pneumoniae D39V, first compound 1 µg/mL	0.907	0.889	0.868	–	0.189	–	0.179	–
S. pneumoniae D39V, first compound 2 µg/mL	0.811	0.779	0.751	–	0.0611	–	0.078	–

O=C(O)[C@H]1/C(=C/CO)O[C@@H]2CC(=O)N21 [Clavulanic acid] + CO/N=C(\C(=O)N[C@@H]1C(=O)N2C(C(=O)O)=C(COC(C)=O)CS[C@H]12)c1csc(N)n1 [Cefotaxime]
fitness, B. subtilis 168, one replicate
Details	partner 0.00775 µg/mL	partner 0.0155 µg/mL	partner 0.031 µg/mL	partner 0.0625 µg/mL	partner 0.125 µg/mL	partner 0.25 µg/mL
first compound 1.5 µg/mL	0.759	0.65	0.525	0.486	0.286	0.225
first compound 3 µg/mL	0.722	0.593	0.489	0.455	0.322	0.15
first compound 6 µg/mL	0.637	0.467	0.384	0.391	0.258	0.185

Details	fitness
B. subtilis 168, first compound 1.5 µg/mL, partner 0.5 µg/mL	0.232
B. subtilis 168, first compound 1.5 µg/mL, partner 1 µg/mL	0.154
B. subtilis 168, first compound 1.5 µg/mL, partner 2 µg/mL	0.0721
B. subtilis 168, first compound 3 µg/mL, partner 0.5 µg/mL	0.218
B. subtilis 168, first compound 3 µg/mL, partner 1 µg/mL	0.118
B. subtilis 168, first compound 3 µg/mL, partner 2 µg/mL	0.0681
B. subtilis 168, first compound 6 µg/mL, partner 0.5 µg/mL	0.14
B. subtilis 168, first compound 6 µg/mL, partner 1 µg/mL	0.0836
B. subtilis 168, first compound 6 µg/mL, partner 2 µg/mL	0.0583
S. aureus Newman, first compound 0.03125 µg/mL, partner 0.078 µg/mL	0.994
S. aureus Newman, first compound 0.03125 µg/mL, partner 0.156 µg/mL	0.8
S. aureus Newman, first compound 0.03125 µg/mL, partner 0.312 µg/mL	0.807
S. aureus Newman, first compound 0.0625 µg/mL, partner 0.078 µg/mL	0.898
S. aureus Newman, first compound 0.0625 µg/mL, partner 0.156 µg/mL	0.741
S. aureus Newman, first compound 0.0625 µg/mL, partner 0.312 µg/mL	0.683
S. aureus Newman, first compound 0.125 µg/mL, partner 0.078 µg/mL	0.822
S. aureus Newman, first compound 0.125 µg/mL, partner 0.156 µg/mL	0.703
S. aureus Newman, first compound 0.125 µg/mL, partner 0.312 µg/mL	0.709
S. pneumoniae D39V, first compound 0.5 µg/mL, partner 0.0018 µg/mL	0.99
S. pneumoniae D39V, first compound 0.5 µg/mL, partner 0.0035 µg/mL	0.966
S. pneumoniae D39V, first compound 1 µg/mL, partner 0.0018 µg/mL	0.971
S. pneumoniae D39V, first compound 1 µg/mL, partner 0.0035 µg/mL	0.927
S. pneumoniae D39V, first compound 1 µg/mL, partner 0.007 µg/mL	0.789
S. pneumoniae D39V, first compound 2 µg/mL, partner 0.0018 µg/mL	0.844
S. pneumoniae D39V, first compound 2 µg/mL, partner 0.0035 µg/mL	0.824
S. pneumoniae D39V, first compound 2 µg/mL, partner 0.007 µg/mL	0.582

O=C(O)[C@H]1/C(=C/CO)O[C@@H]2CC(=O)N21 [Clavulanic acid] + CO/N=C(\C(=O)N[C@@H]1C(=O)N2C(C(=O)[O-])=C(C[N+]3(C)CCCC3)CS[C@H]12)c1csc(N)n1 [Cefepime]
fitness
Details	partner 0.007 µg/mL	partner 0.0078 µg/mL	partner 0.014 µg/mL	partner 0.0155 µg/mL	partner 0.028 µg/mL	partner 0.031 µg/mL	partner 0.125 µg/mL	partner 0.25 µg/mL	partner 0.5 µg/mL
S. aureus Newman, first compound 0.03125 µg/mL	–	–	–	–	–	–	0.965	0.943	0.946
S. aureus Newman, first compound 0.0625 µg/mL	–	–	–	–	–	–	0.94	0.914	0.871
S. aureus Newman, first compound 0.125 µg/mL	–	–	–	–	–	–	0.881	0.884	0.869
S. pneumoniae D39V, first compound 0.5 µg/mL	0.996	0.997	0.997	0.957	0.885	0.501	–	–	–
S. pneumoniae D39V, first compound 1 µg/mL	0.991	0.955	0.988	0.91	0.817	0.456	–	–	–
S. pneumoniae D39V, first compound 2 µg/mL	0.902	0.778	0.904	0.681	0.633	0.199	–	–	–

O=C(O)[C@H]1/C(=C/CO)O[C@@H]2CC(=O)N21 [Clavulanic acid] + CO[C@@]12[C@H](COC(N)=O)C3=C(C(=O)C(C)=C(N)C3=O)N1C[C@@H]1N[C@@H]12 [Mitomycin C]
fitness
Details	partner 0.001075 µg/mL	partner 0.00215 µg/mL	partner 0.004 µg/mL	partner 0.0043 µg/mL	partner 0.008 µg/mL	partner 0.0156 µg/mL	partner 0.0312 µg/mL	partner 0.0625 µg/mL
S. aureus Newman, first compound 0.03125 µg/mL	–	–	–	–	–	0.757	0.549	0.48
S. aureus Newman, first compound 0.0625 µg/mL	–	–	–	–	–	0.748	0.568	0.495
S. aureus Newman, first compound 0.125 µg/mL	–	–	–	–	–	0.721	0.601	0.51
S. pneumoniae D39V, first compound 0.5 µg/mL	0.951	0.885	0.642	0.772	0.324	–	–	–
S. pneumoniae D39V, first compound 1 µg/mL	0.896	0.873	0.586	0.766	0.369	–	–	–
S. pneumoniae D39V, first compound 2 µg/mL	0.838	0.791	0.385	0.696	0.201	–	–	–

O=C(O)[C@H]1/C(=C/CO)O[C@@H]2CC(=O)N21 [Clavulanic acid] + COc1c(N2C[C@@H]3CCCN[C@@H]3C2)c(F)cc2c(=O)c(C(=O)O)cn(C3CC3)c12 [Moxifloxacin]
Details	fitness
B. subtilis 168, first compound 1.5 µg/mL, partner 0.0312 µg/mL	0.0422
B. subtilis 168, first compound 1.5 µg/mL, partner 0.0625 µg/mL	0.0379
B. subtilis 168, first compound 1.5 µg/mL, partner 0.125 µg/mL	0.0596
B. subtilis 168, first compound 1.5 µg/mL, partner 2 µg/mL	0.0304
B. subtilis 168, first compound 1.5 µg/mL, partner 4 µg/mL	0.0307
B. subtilis 168, first compound 1.5 µg/mL, partner 8 µg/mL	0.0071
B. subtilis 168, first compound 3 µg/mL, partner 0.0312 µg/mL	0.0399
B. subtilis 168, first compound 3 µg/mL, partner 0.0625 µg/mL	0.0399
B. subtilis 168, first compound 3 µg/mL, partner 0.125 µg/mL	0.0536
B. subtilis 168, first compound 3 µg/mL, partner 2 µg/mL	0.0289
B. subtilis 168, first compound 3 µg/mL, partner 4 µg/mL	0.0394
B. subtilis 168, first compound 3 µg/mL, partner 8 µg/mL	0.0171
B. subtilis 168, first compound 6 µg/mL, partner 0.0312 µg/mL	0.0317
B. subtilis 168, first compound 6 µg/mL, partner 0.0625 µg/mL	0.0196
B. subtilis 168, first compound 6 µg/mL, partner 0.125 µg/mL	0.0562
B. subtilis 168, first compound 6 µg/mL, partner 2 µg/mL	0.0285
B. subtilis 168, first compound 6 µg/mL, partner 4 µg/mL	0.0252
B. subtilis 168, first compound 6 µg/mL, partner 8 µg/mL	0.0156
S. aureus Newman, first compound 0.03125 µg/mL, partner 0.0075 µg/mL	0.823
S. aureus Newman, first compound 0.03125 µg/mL, partner 0.015 µg/mL	0.742
S. aureus Newman, first compound 0.03125 µg/mL, partner 0.03 µg/mL	0.393
S. aureus Newman, first compound 0.0625 µg/mL, partner 0.0075 µg/mL	0.786
S. aureus Newman, first compound 0.0625 µg/mL, partner 0.015 µg/mL	0.693
S. aureus Newman, first compound 0.0625 µg/mL, partner 0.03 µg/mL	0.312
S. aureus Newman, first compound 0.125 µg/mL, partner 0.0075 µg/mL	0.779
S. aureus Newman, first compound 0.125 µg/mL, partner 0.015 µg/mL	0.699
S. aureus Newman, first compound 0.125 µg/mL, partner 0.03 µg/mL	0.417
S. pneumoniae D39V, first compound 0.5 µg/mL, partner 0.005 µg/mL	0.952
S. pneumoniae D39V, first compound 0.5 µg/mL, partner 0.01 µg/mL	0.982
S. pneumoniae D39V, first compound 0.5 µg/mL, partner 0.02 µg/mL	0.896
S. pneumoniae D39V, first compound 0.5 µg/mL, partner 0.0312 µg/mL	0.0616
S. pneumoniae D39V, first compound 0.5 µg/mL, partner 0.0625 µg/mL	0.0525
S. pneumoniae D39V, first compound 0.5 µg/mL, partner 0.125 µg/mL	0.0269
S. pneumoniae D39V, first compound 1 µg/mL, partner 0.005 µg/mL	0.94
S. pneumoniae D39V, first compound 1 µg/mL, partner 0.01 µg/mL	0.964
S. pneumoniae D39V, first compound 1 µg/mL, partner 0.02 µg/mL	0.908
S. pneumoniae D39V, first compound 1 µg/mL, partner 0.0312 µg/mL	0.198
S. pneumoniae D39V, first compound 1 µg/mL, partner 0.0625 µg/mL	0.173
S. pneumoniae D39V, first compound 1 µg/mL, partner 0.125 µg/mL	0.189
S. pneumoniae D39V, first compound 2 µg/mL, partner 0.005 µg/mL	0.891
S. pneumoniae D39V, first compound 2 µg/mL, partner 0.01 µg/mL	0.939
S. pneumoniae D39V, first compound 2 µg/mL, partner 0.02 µg/mL	0.844
S. pneumoniae D39V, first compound 2 µg/mL, partner 0.0312 µg/mL	0.0371
S. pneumoniae D39V, first compound 2 µg/mL, partner 0.0625 µg/mL	0.0368
S. pneumoniae D39V, first compound 2 µg/mL, partner 0.125 µg/mL	0.0371
